Source: publication PMC8571951, “An activity‐based bioprobe differentiates a novel small molecule inhibitor from a LOXL2 antibody and provides renewed promise for anti‐fibrotic therapeutic strategies” (Clinical and Translational Medicine, 2021)
pIC50: −log10 of the molar value.

Target: T1, LOXL2 (Homo sapiens, UniProt Q9Y4K0)
T1 sequence (Q9Y4K0 26-774): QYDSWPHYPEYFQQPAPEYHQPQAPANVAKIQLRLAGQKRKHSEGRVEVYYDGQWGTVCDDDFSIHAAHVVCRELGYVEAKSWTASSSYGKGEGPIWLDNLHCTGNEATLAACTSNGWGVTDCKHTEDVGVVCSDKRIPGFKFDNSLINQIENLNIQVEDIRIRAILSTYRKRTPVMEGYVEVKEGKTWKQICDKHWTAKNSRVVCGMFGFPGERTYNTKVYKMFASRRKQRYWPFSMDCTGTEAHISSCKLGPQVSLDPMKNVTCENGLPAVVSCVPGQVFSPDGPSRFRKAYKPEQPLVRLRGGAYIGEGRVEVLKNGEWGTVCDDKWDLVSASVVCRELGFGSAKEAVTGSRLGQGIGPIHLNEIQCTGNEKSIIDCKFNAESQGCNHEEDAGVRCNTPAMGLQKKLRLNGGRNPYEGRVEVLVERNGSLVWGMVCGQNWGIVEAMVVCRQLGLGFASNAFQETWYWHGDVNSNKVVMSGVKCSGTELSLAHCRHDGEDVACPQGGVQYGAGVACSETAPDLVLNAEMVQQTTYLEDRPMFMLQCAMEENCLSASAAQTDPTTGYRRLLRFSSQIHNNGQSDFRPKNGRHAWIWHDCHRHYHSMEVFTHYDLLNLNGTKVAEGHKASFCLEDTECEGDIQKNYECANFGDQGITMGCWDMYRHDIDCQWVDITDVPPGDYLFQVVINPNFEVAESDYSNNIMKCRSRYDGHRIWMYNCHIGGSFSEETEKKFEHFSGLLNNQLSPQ
Experiment: Phase 1 study, LOXL2 activity in plasma after single oral dose (PXS-5878/Simoa)
Format: in vivo
Design: from tissue; host or cells: human plasma (activity) and human serum (protein concentration) from clinical trial subjects
Settings: for Inhibition of LOXL2 activity: healthy humans
Method: To confirm the therapeutic potential of the anti‐fibrotic PXS‐5338 (Figure S5) in humans, LOXL2 inhibition after oral administration was examined in a phase 1 study. […] This underscored the fast resynthesis of LOXL2 in humans, similar to that seen in rodents, with ca. 80% of enzyme activity returning within 24 h.
FIGURE 3 Inhibition of human lysyl oxidase‐like 2 (LOXL2) enzymatic activity by PXS‐5338 in clinical trials. (A) LOXL2 protein concentration in human serum is fairly constant over 24 h. Protein concentrations normalised to pre‐dose levels are plotted over time in healthy subjects treated with different doses (placebo, 100, 200 and 400 mg) of PXS‐5338. Mean ± SD with n = 6/time point. Phase 1 study with healthy male volunteers, ANZCTR ACTRN12617001444370. Legend of (A) also applies to (B) and (C). (B) Dose‐dependent inhibition of LOXL2 in plasma following a single oral dose of 100, 200 mg or 400 mg PXS‐5338. PXS‐5878/Simoa® platform used to measure the residual activity. Mean ± SD with n = 6/time point. (C) Pharmacokinetic (PK) profile of PXS‐5338 in healthy human males. […] (D) Correlation between LOXL2 protein concentration versus % inhibition. Activity data normalised to pre‐dose value.
The platform consists of an activity-based probe (ABP) for the detection of enzyme activity in conjunction with the Simoa^TM (single molecule array) bead technology to isolate the protein. This platform has enabled accurate measurement of total protein and enzymatic activity of LOXL2 from small volumes of serum, plasma and tissue.
In the immunoassay, paramagnetic capture beads are coated with a LOXL2 capture antibody (AF2639). 100 µL of pre-diluted (4-fold) sample in buffer (0.5% Casein, 0.25% Tween-20 in PBS) is combined in a cuvette with the capture beads (25 µL for protein content at 1.6 x 10^7 beads/mL; 100 µL for enzyme activity at 4 x 10^6 beads/mL). The biotinylated detector agent [either a second anti-LOXL2 antibody (AB213598) for protein content or the ABP (PXS-5878) for enzyme activity) is then added during the same incubation with intermittent shaking at room temperature (35 minutes for protein content or 54 minutes for enzyme activity).
Target molecules present in the sample are captured by the antibody coated beads and bound with the detector agent simultaneously. After incubation, beads are pelleted by magnetic separation, excess sample/buffer and reagents aspirated off and beads resuspended in wash buffer to remove unbound proteins and excess reagents.
Following protein capture and incubation with the detector, a conjugate of streptavidin-β-galactosidase (SβG; 100 µL at 300 - 350 pM) is mixed with the beads and incubated (5 minutes with intermittent shaking at room temperature). SβG binds to the biotinylated detector agent, resulting in enzyme-labelling of captured LOXL2. Following a final wash, the beads are resuspended in a resorufin-β-D-galactopyranoside (RGP) substrate solution and transferred to a Simoa^TM Disc (containing a microarray to separate beads into individual microwells). After settling into the microarray via gravity, beads are then sealed in microwells with oil. If LOXL2 is captured and labelled on the bead, β-galactosidase hydrolyses the RGP substrate in the microwell into a fluorescent product that provides the signal for measurement. A single-labelled target molecule results in sufficient fluorescent signal that can be detected and counted by the Simoa^TM optical system. The percentage of bead-containing wells in the array that have a positive signal is proportional to the amount of target or activity present in the sample.
To determine protein concentration, data can be interpolated from a calibration curve using rh LOXL2. For enzyme activity, samples are incubated for at least 30 minutes at room temperature with or without the pan-LOX inhibitor (100 μM BAPN). […]

Inhibition of LOXL2 activity (single oral dose 100 mg, 4 h): 80%
Inhibition of LOXL2 activity (single oral dose 100 mg, 24 h): approximately 20%
Inhibition of LOXL2 activity (single oral dose 200 mg, 4 h): complete inhibition
Inhibition of LOXL2 activity (single oral dose 200 mg, 24 h): 50%
Inhibition of LOXL2 activity (single oral dose 400 mg, 4 h): complete inhibition
Inhibition of LOXL2 activity (single oral dose 400 mg, 24 h): 70%
pIC50 (phase 1 samples, n = 210, read-out: Calculated IC50 from correlation of concentration versus % inhibition): 7.62
Compound: CC(C)c1c(Cc2ccc(S(C)(=O)=O)nc2)c2ncccc2n1C/C(F)=C/CN [PXS‐5338]
